Here are results for one molecule from ChEMBL document CHEMBL4418490, “N-(heteroaryl)-sulfonamide derivatives useful as s100-inhibitors” (2018).

Holding throughout (format): ADME, organism-based
A short description of series [1]: Plasma concentration in C215 transfected MC38 cells implanted C57BL/6 mouse at 5 mg/kg, po dosed as cassette formulation and measured at 1 hr after post dose by LC-MS analysis.
Series [2] can be described thus: Plasma concentration in C215 transfected MC38 cells implanted C57BL/6 mouse assessed as 2,5-dichloro-N-(6-chloro-4-hydroxypyridin-3-yl)thiophene-3-sulfonamide level at 1 mg/kg, iv dosed as cassette formulation and measured at 4 hrs after post dose by LC-MS analysis. To be noted: in vivo.
Series [3] can be described thus: Plasma concentration in C215 transfected MC38 cells implanted C57BL/6 mouse at 1 mg/kg, iv dosed as cassette formulation and measured at 0.5 hrs after post dose by LC-MS analysis.
A short description of series [4]: Plasma concentration in C215 transfected MC38 cells implanted C57BL/6 mouse at 1 mg/kg, iv dosed as cassette formulation and measured at 1 hr after post dose by LC-MS analysis.
A short description of series [5]: Plasma concentration in C215 transfected MC38 cells implanted C57BL/6 mouse assessed as 2,5-dichloro-N-(6-chloro-4-hydroxypyridin-3-yl)thiophene-3-sulfonamide level at 5 mg/kg, po dosed as cassette formulation and measured at 4 hrs after post dose by LC-MS analysis. The conditions noted are these: in vivo.
Series [6] in a line: Plasma concentration in C215 transfected MC38 cells implanted C57BL/6 mouse at 5 mg/kg, po dosed as cassette formulation and measured at 4 hrs after post dose by LC-MS analysis.
A short description of series [7]: Plasma concentration in C215 transfected MC38 cells implanted C57BL/6 mouse at 5 mg/kg, po dosed as cassette formulation and measured at 7 hrs after post dose by LC-MS analysis.
Series [8] in a line: Plasma concentration in C215 transfected MC38 cells implanted C57BL/6 mouse at 1 mg/kg, iv dosed as cassette formulation and measured at 4 hrs after post dose by LC-MS analysis.
Series [9] is described as follows: Plasma concentration in C215 transfected MC38 cells implanted C57BL/6 mouse at 5 mg/kg, po dosed as cassette formulation and measured at 2 hrs after post dose by LC-MS analysis.
The nature of series [10]: Plasma concentration in C215 transfected MC38 cells implanted C57BL/6 mouse assessed as 2,5-dichloro-N-(6-chloro-4-hydroxypyridin-3-yl)thiophene-3-sulfonamide level at 1 mg/kg, iv dosed as cassette formulation and measured at 2 hrs after post dose by LC-MS analysis. The conditions noted are these: in vivo.
A short description of series [11]: Plasma concentration in C215 transfected MC38 cells implanted C57BL/6 mouse assessed as 2,5-dichloro-N-(6-chloro-4-hydroxypyridin-3-yl)thiophene-3-sulfonamide level at 5 mg/kg, po dosed as cassette formulation and measured at 2 hrs after post dose by LC-MS analysis. The conditions noted are these: in vivo.
Series [12] can be described thus: Plasma concentration in C215 transfected MC38 cells implanted C57BL/6 mouse at 1 mg/kg, iv dosed as cassette formulation and measured at 0.083 hrs after post dose by LC-MS analysis.
Series [13] in a line: Plasma concentration in C215 transfected MC38 cells implanted C57BL/6 mouse assessed as 2,5-dichloro-N-(6-chloro-4-hydroxypyridin-3-yl)thiophene-3-sulfonamide level at 5 mg/kg, po dosed as cassette formulation and measured at 7 hrs after post dose by LC-MS analysis. To be noted: in vivo.
Series [14] in a line: Plasma concentration in C215 transfected MC38 cells implanted C57BL/6 mouse assessed as 2,5-dichloro-N-(6-chloro-4-hydroxypyridin-3-yl)thiophene-3-sulfonamide level at 1 mg/kg, iv dosed as cassette formulation and measured at 0.083 hrs after post dose by LC-MS analysis. To be noted: in vivo.
Series [15] is described as follows: Plasma concentration in C215 transfected MC38 cells implanted C57BL/6 mouse assessed as 2,5-dichloro-N-(6-chloro-4-hydroxypyridin-3-yl)thiophene-3-sulfonamide level at 5 mg/kg, po dosed as cassette formulation and measured at 1 hr after post dose by LC-MS analysis. To be noted: in vivo.
Series [16] is described as follows: Plasma concentration in C215 transfected MC38 cells implanted C57BL/6 mouse assessed as 2,5-dichloro-N-(6-chloro-4-hydroxypyridin-3-yl)thiophene-3-sulfonamide level at 5 mg/kg, po dosed as cassette formulation and measured at 0.5 hrs after post dose by LC-MS analysis. The conditions noted are these: in vivo.
Series [17] can be described thus: Plasma concentration in C215 transfected MC38 cells implanted C57BL/6 mouse at 1 mg/kg, iv dosed as cassette formulation and measured at 2 hrs after post dose by LC-MS analysis.
Series [18] is described as follows: Plasma concentration in C215 transfected MC38 cells implanted C57BL/6 mouse assessed as 2,5-dichloro-N-(6-chloro-4-hydroxypyridin-3-yl)thiophene-3-sulfonamide level at 1 mg/kg, iv dosed as cassette formulation and measured at 0.5 hrs after post dose by LC-MS analysis. The conditions noted are these: in vivo.
A short description of series [19]: Plasma concentration in C215 transfected MC38 cells implanted C57BL/6 mouse assessed as 2,5-dichloro-N-(6-chloro-4-hydroxypyridin-3-yl)thiophene-3-sulfonamide level at 1 mg/kg, iv dosed as cassette formulation and measured at 1 hr after post dose by LC-MS analysis. To be noted: in vivo.
Series [20] is described as follows: Plasma concentration in C215 transfected MC38 cells implanted C57BL/6 mouse assessed as 2,5-dichloro-N-(6-chloro-4-hydroxypyridin-3-yl)thiophene-3-sulfonamide level at 1 mg/kg, iv dosed as cassette formulation and measured at 7 hrs after post dose by LC-MS analysis. To be noted: in vivo.
Series [21] in a line: Plasma concentration in C215 transfected MC38 cells implanted C57BL/6 mouse at 1 mg/kg, iv dosed as cassette formulation and measured at 7 hrs after post dose by LC-MS analysis.
Series [22] in a line: Plasma concentration in C215 transfected MC38 cells implanted C57BL/6 mouse at 5 mg/kg, po dosed as cassette formulation and measured at 0.5 hrs after post dose by LC-MS analysis.

Consider `COc1cc(Cl)ncc1NS(=O)(=O)c1cc(Cl)sc1Cl`, for which the concentration at 1 h in [1] amounted to 91600 nM; in series [4], 23700 nM. In addition, the concentration in [2] came out at 180 nM; in series [5], 610 nM; in series [10], 210 nM; in series [11] it was 690 nM; in series [13] it was 780 nM; in [14], 89 nM. The concentration in [15] stood at 490 nM; in series [16] it was 460 nM; in series [18], 200 nM; in series [19], 190 nM; in series [20] it was 130 nM. Further, the concentration at 0.5 h turned out to be 19300 nM in series [3] and 86800 nM in series [22]. The concentration at 4 h is 47100 nM in series [6] and 7800 nM in series [8]. For the same molecule, the concentration at 7 h in series [7] came to 50300 nM; in [21] it was 2500 nM. Also, the concentration at 2 h was 109000 nM in series [9] and 17500 nM in series [17]. Also, the concentration at 0.083 h in series [12] came out at 32200 nM.
